Source: paper PMC11123841, “Discovery and Synthesis of Hydroxy-L-Proline Blockers of the Neutral Amino Acid Transporters SLC1A4 (ASCT1) and SLC1A5 (ASCT2)” (Molecules, 2024)
Values joined by “and” are separate entries in the source; they are usually repeats but may differ in a detail not shown here. Identical values can stand only once. Each block holds one molecule with its values, some of them ahead of it.

Assays:
mSLC1A5 = target: T1, mSLC1A5 (Mus musculus, UniProt P51912); test: TEVC block of anion leak conductance in oocytes; type: cell-based; details: SLC1A5 (transporter not given)
T1 construct: expressed in transfected cells; host or cells: Xenopus laevis oocytes (cRNA injection)
T1 sequence (P51912 1-553): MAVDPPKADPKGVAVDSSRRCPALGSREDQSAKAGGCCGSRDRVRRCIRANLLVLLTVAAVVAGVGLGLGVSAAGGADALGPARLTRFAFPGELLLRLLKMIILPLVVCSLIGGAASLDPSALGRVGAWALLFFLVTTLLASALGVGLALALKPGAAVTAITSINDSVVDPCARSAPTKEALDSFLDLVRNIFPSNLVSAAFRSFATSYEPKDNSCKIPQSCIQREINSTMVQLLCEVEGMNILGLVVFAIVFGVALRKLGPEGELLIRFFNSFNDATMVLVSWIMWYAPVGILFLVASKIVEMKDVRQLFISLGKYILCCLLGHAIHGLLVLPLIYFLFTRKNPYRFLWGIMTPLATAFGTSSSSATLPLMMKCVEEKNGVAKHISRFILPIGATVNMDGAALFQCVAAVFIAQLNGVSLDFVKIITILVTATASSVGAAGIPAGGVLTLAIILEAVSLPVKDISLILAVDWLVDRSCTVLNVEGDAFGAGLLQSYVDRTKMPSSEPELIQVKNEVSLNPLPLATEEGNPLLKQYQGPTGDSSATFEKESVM
Description: (§1) The currents induced by substrates and blocked by hydroxyproline analogs shared a reversal potential shown in the current/voltage relationship consistent with the conductance originating from the same ion pore (Figure 3, inset). […] The observed dose–response relationships are independent of competing substrates, and thus provide a direct measure of the equilibrium inhibition constant (Ki). Each synthetic hydroxyproline analog was functionally assessed for its capacity to inhibit SLC1A4 and SLC1A5 leak currents with affinities reported in Table 1 as determined or approximated Ki.
(§2) Two-electrode voltage clamp (TEVC) transporter currents were recorded with a GeneClamp 500 amplifier and Digidata 1320A analog–digital interface (Molecular Devices, San Jose, CA, USA). Electrodes (0.2–1.0 MΩ) were filled with 3M KCl and the recording chamber was grounded with an agar bridge. Data were acquired with Axograph (v1.7.6) and LabChart (v7) and analyzed with Kaleidagraph software (v4.1) (Synergy, Reading, PA, USA). Uncoupled anion currents associated with the transport of substrate and block of SLC1A4 or SLC1A5 mediated leak conductance were recorded in the presence of Ringer with 50% substitution of NaCl by NaSCN to amplify the non-transported anion conductance.
(§3) Figure 3 AHPCs block a leak current in SLC1A4 and SLC1A5. […] Inset (A): The current and voltage relationship for SLC1A4 currents activated by Ala or blocked by 14b are determined by subtracting voltage jumps in buffer.

SLC1A4 = target: T2, SLC1A4 (Homo sapiens, UniProt P43007); test: TEVC block of anion leak conductance in oocytes; type: cell-based; details: for SLC1A4 Ki (µM): from dose–response of blocked anion conductance, compounds tested only once without standard error
T2 construct: expressed in transfected cells; host or cells: Xenopus laevis oocytes (cRNA injection)
T2 sequence (P43007 1-532): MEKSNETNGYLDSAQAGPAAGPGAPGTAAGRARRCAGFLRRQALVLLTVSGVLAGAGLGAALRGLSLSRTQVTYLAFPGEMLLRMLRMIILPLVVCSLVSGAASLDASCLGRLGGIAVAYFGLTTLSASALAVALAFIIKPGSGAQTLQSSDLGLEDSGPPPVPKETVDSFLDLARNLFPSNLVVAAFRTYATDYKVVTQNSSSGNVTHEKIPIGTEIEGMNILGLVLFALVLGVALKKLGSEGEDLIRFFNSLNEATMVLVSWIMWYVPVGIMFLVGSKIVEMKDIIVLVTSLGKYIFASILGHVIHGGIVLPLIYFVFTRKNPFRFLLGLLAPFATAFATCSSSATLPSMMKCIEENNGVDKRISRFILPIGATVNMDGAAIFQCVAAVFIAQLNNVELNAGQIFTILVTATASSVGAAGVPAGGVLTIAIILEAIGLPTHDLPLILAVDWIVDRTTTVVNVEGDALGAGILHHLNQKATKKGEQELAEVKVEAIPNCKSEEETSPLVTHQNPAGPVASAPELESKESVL
Description: as §1, §2, §3

SLC1A5 (mASCT2) = target: T3, SLC1A5 (mASCT2) (Mus musculus, UniProt P51912); test: TEVC substrate-induced SCN- anion currents in Xenopus oocytes; type: cell-based
T3 construct: expressed in transfected cells; host or cells: Xenopus laevis oocytes (cRNA injection)
T3 sequence (P51912 1-553): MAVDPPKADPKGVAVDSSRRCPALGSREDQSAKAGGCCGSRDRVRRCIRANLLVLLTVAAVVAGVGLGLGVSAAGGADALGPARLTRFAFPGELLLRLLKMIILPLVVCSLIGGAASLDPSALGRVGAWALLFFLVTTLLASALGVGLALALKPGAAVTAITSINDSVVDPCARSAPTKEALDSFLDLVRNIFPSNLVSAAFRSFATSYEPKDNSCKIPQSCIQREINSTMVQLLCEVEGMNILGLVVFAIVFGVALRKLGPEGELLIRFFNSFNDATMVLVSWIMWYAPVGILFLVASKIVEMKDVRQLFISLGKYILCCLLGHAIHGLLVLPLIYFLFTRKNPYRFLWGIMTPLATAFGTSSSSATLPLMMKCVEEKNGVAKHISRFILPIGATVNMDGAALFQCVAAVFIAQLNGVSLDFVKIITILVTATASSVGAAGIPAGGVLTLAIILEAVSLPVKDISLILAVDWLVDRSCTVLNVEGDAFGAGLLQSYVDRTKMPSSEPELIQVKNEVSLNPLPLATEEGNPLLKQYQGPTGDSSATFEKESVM
Protocol: (§4) Additionally, 4-HP applied at 1 mM was used to assess activity at the glutamate transporters SLC1A3 or SLC1A1.
(§5) Uptake was halted by washing 3 times with 4 °C ND96 buffer. Oocytes were then lysed in 0.1% Triton X-100, and radioactivity was counted via liquid scintillation. Dose response curves were generated by fitting fractional inhibition (I) to the expression I = Imax × [inhibitor]/([inhibitor] + IC50).
as §2
(§6) (A) SLC1A4 dose response curves for substrate activated anion currents using two-electrode voltage clamp of Xenopus lavies oocytes (−30 mV). […] (B) SLC1A5 dose response curve for substrate activated anion currents using two-electrode voltage clamp (−30 mV). […] Extracellular solutions contained 50 mM NaSCN.

SLC1A4 (hASCT1) = target: T4, SLC1A4 (hASCT1) (Homo sapiens, UniProt P43007); test: as above; type: cell-based
T4 construct: expressed in transfected cells; host or cells: Xenopus laevis oocytes (cRNA injection)
T4 sequence (P43007 1-532): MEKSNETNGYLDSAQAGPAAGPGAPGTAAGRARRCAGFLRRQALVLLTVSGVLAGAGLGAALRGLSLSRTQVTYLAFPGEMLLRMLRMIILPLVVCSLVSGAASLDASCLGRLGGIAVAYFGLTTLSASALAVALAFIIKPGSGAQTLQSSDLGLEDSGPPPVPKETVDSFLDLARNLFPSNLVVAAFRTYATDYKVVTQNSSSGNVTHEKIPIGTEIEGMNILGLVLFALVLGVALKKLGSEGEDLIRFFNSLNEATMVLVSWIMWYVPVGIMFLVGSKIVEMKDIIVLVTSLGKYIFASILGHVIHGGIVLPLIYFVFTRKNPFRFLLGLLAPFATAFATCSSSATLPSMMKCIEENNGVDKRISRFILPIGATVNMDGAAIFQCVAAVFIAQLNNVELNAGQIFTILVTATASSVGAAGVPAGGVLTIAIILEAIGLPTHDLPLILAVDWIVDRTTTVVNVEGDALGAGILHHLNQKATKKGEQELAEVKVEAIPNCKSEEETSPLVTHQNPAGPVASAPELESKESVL
Protocol: as §4, §5, §2, §6

[1] = substrate: O=C(O)[C@@H]1C[C@@H](O)CN1; test: as above; type: cell-based, mouse; details: other: SLC1A5; substrate activated anion currents, TEVC −30 mV, 50 mM NaSCN, Michaelis-Menten fit
[2] = substrate: O=C(O)[C@H]1NCC[C@@H]1O; test: as above; type: cell-based, mouse; details: other: SLC1A5; substrate activated anion currents, TEVC −30 mV, 50 mM NaSCN, Michaelis-Menten fit
[3] = substrate: NC(=O)CC[C@H](N)C(=O)O; test: as above; type: cell-based, mouse; details: other: SLC1A5; substrate activated anion currents, TEVC −30 mV, 50 mM NaSCN, Michaelis-Menten fit
[4] = substrate: O=C(O)[C@@H]1C[C@@H](O)CN1; test: as above; type: cell-based, human; details: other: SLC1A4; substrate activated anion currents, TEVC −30 mV, 50 mM NaSCN, Michaelis-Menten fit
[5] = substrate: O=C(O)[C@H]1NCC[C@@H]1O; test: as above; type: cell-based, human; details: other: SLC1A4; substrate activated anion currents, TEVC −30 mV, 50 mM NaSCN, Michaelis-Menten fit
[6] = substrate: C[C@H](N)C(=O)O; test: cells, lysate or membranes; details: other: SLC1A4; substrate activated anion currents, TEVC −30 mV, 50 mM NaSCN, Michaelis-Menten fit

Molecule: O=C(O)[C@@H]1C[C@H](O)CN1 [compound 1, cis-4-hydroxy-L-proline, reference compound]
concentration at which leak anion current is blocked (mSLC1A5): above 500 µM | concentration at which leak anion current is blocked (SLC1A4; SLC1A4 (transporter not given)): above 500 µM | substrate currents (SLC1A5 (mASCT2)): did not induce detectable substrate currents | substrate currents (SLC1A4 (hASCT1)): did not induce detectable substrate currents

SLC1A4 Ki (µM) (SLC1A4): No Block
Molecule: C[C@]1(O)CN[C@H](C(=O)O)C1 [compound 26, cis-4-methyl-trans-4-hydroxy-L-proline]

SLC1A4 Ki (µM) (SLC1A4): No Block
Molecule: C[C@@]1(O)CN[C@H](C(=O)O)C1 [compound 27, cis-4-hydroxy-trans-4-methyl-L-proline]

B1: SLC1A5 (mASCT2) (Mus musculus) (protein)
chain: MAVDPPKADPKGVAVDSSRRCPALGSREDQSAKAGGCCGSRDRVRRCIRANLLVLLTVAAVVAGVGLGLGVSAAGGADALGPARLTRFAFPGELLLRLLKMIILPLVVCSLIGGAASLDPSALGRVGAWALLFFLVTTLLASALGVGLALALKPGAAVTAITSINDSVVDPCARSAPTKEALDSFLDLVRNIFPSNLVSAAFRSFATSYEPKDNSCKIPQSCIQREINSTMVQLLCEVEGMNILGLVVFAIVFGVALRKLGPEGELLIRFFNSFNDATMVLVSWIMWYAPVGILFLVASKIVEMKDVRQLFISLGKYILCCLLGHAIHGLLVLPLIYFLFTRKNPYRFLWGIMTPLATAFGTSSSSATLPLMMKCVEEKNGVAKHISRFILPIGATVNMDGAALFQCVAAVFIAQLNGVSLDFVKIITILVTATASSVGAAGIPAGGVLTLAIILEAVSLPVKDISLILAVDWLVDRSCTVLNVEGDAFGAGLLQSYVDRTKMPSSEPELIQVKNEVSLNPLPLATEEGNPLLKQYQGPTGDSSATFEKESVM
notes: expressed in transfected cells; host or cells: Xenopus laevis oocytes (cRNA injection)
Km [1]: 76.3 ± 11.0 µM | Km [2]: 28.6 ± 6.4 µM | Km [3]: 47.4 ± 4.6 µM

B2: SLC1A4 (hASCT1) (Homo sapiens) (protein)
chain: MEKSNETNGYLDSAQAGPAAGPGAPGTAAGRARRCAGFLRRQALVLLTVSGVLAGAGLGAALRGLSLSRTQVTYLAFPGEMLLRMLRMIILPLVVCSLVSGAASLDASCLGRLGGIAVAYFGLTTLSASALAVALAFIIKPGSGAQTLQSSDLGLEDSGPPPVPKETVDSFLDLARNLFPSNLVVAAFRTYATDYKVVTQNSSSGNVTHEKIPIGTEIEGMNILGLVLFALVLGVALKKLGSEGEDLIRFFNSLNEATMVLVSWIMWYVPVGIMFLVGSKIVEMKDIIVLVTSLGKYIFASILGHVIHGGIVLPLIYFVFTRKNPFRFLLGLLAPFATAFATCSSSATLPSMMKCIEENNGVDKRISRFILPIGATVNMDGAAIFQCVAAVFIAQLNNVELNAGQIFTILVTATASSVGAAGVPAGGVLTIAIILEAIGLPTHDLPLILAVDWIVDRTTTVVNVEGDALGAGILHHLNQKATKKGEQELAEVKVEAIPNCKSEEETSPLVTHQNPAGPVASAPELESKESVL
notes: as for B1
Km [4]: 17.1 ± 0.8 µM | Km [5]: 13.5 ± 1.8 µM | Km [6]: 40.0 ± 1.8 µM and 40.3 µM
